Key:
[1] = tested on: A549-ACE2; assay: phospholipidosis EC50; higher = less potent phospholipidosis inducer
[2] = tested on: A549-ACE2 infected with SARS-CoV-2; assay: morphology score (similarity to uninfected cells); higher = more like uninfected cells; details: 24 h
[3] = tested on: U2OS; assay: drug sensitivity score (DSS) for viability; higher = more toxic; extreme values may be limits of the assay; details: 72 h
[4] = tested on: Vero E6; assay: as above; details: 72 h
[5] = tested on: Calu-3; assay: as above; details: 72 h
[6] = tested on: Caco-2; assay: as above; details: 72 h
[7] = tested on: HepG2; assay: as above; details: 72 h
[8] = tested on: U2OS; assay: cell viability relative to DMSO; higher = less toxic; details: 72 h
[9] = tested on: Vero E6; assay: as above; details: 72 h
[10] = tested on: Calu-3; assay: as above; details: 72 h
[11] = tested on: Caco-2; assay: as above; details: 72 h
[12] = tested on: HepG2; assay: as above; details: 72 h
[13] = tested on: A549-ACE2 infected with SARS-CoV-2; assay: cell count relative to DMSO; higher = less toxic; details: 24 h
[14] = tested on: A549-ACE2; assay: drug-induced phospholipidosis relative to tamoxifen; higher = more phospholipidosis
[15] = tested on: A549-ACE2 infected with SARS-CoV-2; assay: SARS-CoV-2 infection rate relative to DMSO; higher = more infection; details: 24 h
[16] = tested on: Calu-3; assay: relative viability EC50 (midpoint between 100% and the lowest measured viability); higher = less toxic; details: 72 h
[17] = tested on: HepG2; assay: as above; details: 72 h
[18] = tested on: U2OS; assay: as above; details: 72 h
[19] = tested on: Vero E6; assay: as above; details: 72 h
[20] = tested on: Caco-2; assay: as above; details: 72 h

COc1cc(C(=O)NC2CCN(C)CC2)c(F)cc1Nc1ncc2c(n1)N(C1CCCC1)CC(F)(F)C(=O)N2C [TAK-960]
Details	morphology score, 0.1 µM	morphology score, 0.3 µM	morphology score, 1 µM	morphology score, 3 µM	phospholipidosis EC50, 24 h [nM]
[1]	–	–	–	–	3200
[2]	-0.06	-0.01	0.15	0.58	–

Details	drug sensitivity score
[3]	12.5
[4]	12.5
[5]	4.3
[6]	10.9
[7]	21.8

C1CCC(C(CC2CCCCN2)C2CCCCC2)CC1 (stereo not drawn) [perhexiline]
Details	SARS-CoV-2 infection rate [%]	cell count [%]	cell viability [%]	morphology score	phospholipidosis EC50 [nM]
[1], 24 h	–	–	–	–	945
[1], 48 h	–	–	–	–	2480
[1], 72 h	–	–	–	–	4510
[2], 0.1 µM	–	–	–	-0.02	–
[2], 0.3 µM	–	–	–	-0.25	–
[2], 1 µM	–	–	–	0.35	–
[2], 3 µM	–	–	–	0.91	–
[8], 1 nM	–	–	101	–	–
[8], 10 nM	–	–	103	–	–
[8], 100 nM	–	–	103	–	–
[8], 1000 nM	–	–	98.6	–	–
[8], 10000 nM	–	–	62	–	–
[9], 1 nM	–	–	106	–	–
[9], 10 nM	–	–	103	–	–
[9], 100 nM	–	–	99.5	–	–
[9], 1000 nM	–	–	95.3	–	–
[9], 10000 nM	–	–	71.1	–	–
[10], 1 nM	–	–	108	–	–
[10], 10 nM	–	–	101	–	–
[10], 100 nM	–	–	92.6	–	–
[10], 1000 nM	–	–	101	–	–
[10], 10000 nM	–	–	1.9	–	–
[11], 1 nM	–	–	92.7	–	–
[11], 10 nM	–	–	101	–	–
[11], 100 nM	–	–	93.9	–	–
[11], 1000 nM	–	–	90.9	–	–
[11], 10000 nM	–	–	63.5	–	–
[12], 1 nM	–	–	98.9	–	–
[12], 10 nM	–	–	99.5	–	–
[12], 100 nM	–	–	103	–	–
[12], 1000 nM	–	–	95.1	–	–
[12], 10000 nM	–	–	38.6	–	–
[13], 0.1 µM	–	99	–	–	–
[13], 0.3 µM	–	96	–	–	–
[13], 1 µM	–	105	–	–	–
[13], 3 µM	–	123	–	–	–
[15], 0.1 µM	100	–	–	–	–
[15], 0.3 µM	104	–	–	–	–
[15], 1 µM	79	–	–	–	–
[15], 3 µM	36	–	–	–	–

drug-induced phospholipidosis [%], [14]
Details	0.3 µM	0.833333 µM	3.33333 µM	6.66667 µM	10 µM	30 µM
24 h	3.79	25.8	87.2	113	106	26.8
48 h	4.34	16.1	84.3	113	121	–
72 h	5.16	14.3	68.3	99.9	120	–

Details	drug sensitivity score	relative viability EC50 [µM]
[3]	2	–
[4]	2	–
[5]	5.4	–
[6]	2.9	–
[7]	4.1	–
[16]	–	3.24
[17]	–	2.51

CC(=O)OC[C@H]1O[C@@](COC(C)=O)(O[C@H]2O[C@H](COC(C)=O)[C@@H](OC(C)=O)[C@H](OC(C)=O)[C@H]2OC(C)=O)[C@@H](OC(C)=O)[C@@H]1OC(C)=O [sucrose-octaacetate]
cell viability [%]
Details	[8]	[9]	[10]	[11]	[12]
1 nM	95.1	98.5	102	102	93
10 nM	89.6	100	96.3	99.6	100
100 nM	97.7	94.1	99	97	102
1000 nM	102	94.6	103	93	103
10000 nM	102	110	108	98.4	109

Details	drug sensitivity score	relative viability EC50 [µM]
[3]	0	–
[4]	0	–
[5]	0	–
[6]	0	–
[7]	0	–
[16]	–	> 10
[17]	–	> 10
[18]	–	> 10
[19]	–	> 10
[20]	–	> 10

O=C1C(CC[S+]([O-])c2ccccc2)C(=O)N(c2ccccc2)N1c1ccccc1 (stereo not drawn) [sulfinpyrazone]
cell viability [%]
Details	[8]	[9]	[10]	[11]	[12]
1 nM	97.5	106	93.2	102	109
10 nM	102	103	98	103	115
100 nM	104	100	98.9	98.5	110
1000 nM	102	97.1	94	99.8	97.7
10000 nM	102	103	105	90.5	110

Details	drug sensitivity score	relative viability EC50 [µM]
[3]	0	–
[4]	0	–
[5]	0	–
[6]	0	–
[7]	0	–
[16]	–	> 10
[17]	–	> 10
[18]	–	> 10
[19]	–	> 10
[20]	–	> 10

COc1cc(O)c(C(=O)c2ccccc2)cc1S(=O)(=O)O [sulisobenzone]
cell viability [%]
Details	[8]	[9]	[10]	[11]	[12]
1 nM	103	103	100	104	93.3
10 nM	94.8	99.1	106	96.3	101
100 nM	98.4	95.7	98.1	102	99.8
1000 nM	94.6	95.9	109	91.8	99.3
10000 nM	98.7	89.9	102	103	98.3

Details	drug sensitivity score	relative viability EC50 [µM]
[3]	0	–
[4]	0	–
[5]	0	–
[6]	0	–
[7]	0	–
[16]	–	> 10
[17]	–	> 10
[18]	–	> 10
[19]	–	> 10
[20]	–	> 10

Cn1nnc2c(C(N)=O)ncn2c1=O [temozolomide]
cell viability [%]
Details	[8]	[9]	[10]	[11]	[12]
1 nM	98	99.4	97.6	90.3	112
10 nM	103	97.5	106	97.3	99.6
100 nM	92.3	95.9	102	96	104
1000 nM	96.8	98.2	94.5	106	93.5
10000 nM	95	102	98.6	99.3	114

Details	drug sensitivity score	relative viability EC50 [µM]
[3]	0	–
[4]	0	–
[5]	0	–
[6]	0	–
[7]	0	–
[16]	–	> 10
[17]	–	> 10
[18]	–	> 10
[19]	–	> 10
[20]	–	> 10

Reference: the supplement of paper PMC13380429
